Test results from patent US20260250325A1, “Antiviral Polypeptide Membrane Fusion Inhibitor, and Preparation Method and Application Thereof” (priority 2025, published 2026).
Where a SMILES comes first, the peptide text is derived from it. The star is where a group is joined. Succinyl(4-O-cholesteryl) = CC(C)CCC[C@@H](C)[C@H]1CC[C@H]2[C@@H]3CC=C4C[C@@H](OC(=O)CCC(=O)*)CC[C@]4(C)[C@H]3CC[C@]12C

Key:
RSV A2 virus strain = assay: Cotton rat RSV A2 challenge protection, lung nucleic acid load by RT-qPCR; format: in vivo; settings: cotton rats; for Nucleic acid load RT-qPCR detection results Log10 mean (copy number/gram of lung tissue): tracheal nebulization 1 mg/kg QD for 5 days, lung collected 2 h after final administration on Day 4; for effect on viral titer in lung tissue (in words): tracheal nebulization once daily for 5 days
Text: Female cotton rats were from Shanghai Yishang Biotechnology Co., Ltd. The RSV A2 virus strain was from the ATCC, with a catalog number VR-1540. RT-qPCR primer+probe primer were supplied by Qingke Biotechnology Co., Ltd, with batch number TSP20241227-025-00187. The RT-qPCR standard was provided by Vazyme, with batch number 20241008.
Female cotton rats (6-8 weeks old) were grouped based on body weight (n=5). All animals were intranasally challenged with RSV on Day 0 at a challenge dosage of […] pfu (50 μL) per animal. Administration began 1 h after Day 0 challenge; the polypeptide sample, positive control, and solvent control were administered via tracheal nebulization once daily for 5 consecutive days. Lung tissue was collected from all animals 2 h after the final administration on Day 4. Left lung tissue (including partial trachea) was rapidly frozen in a virus protection solution with a 10-fold volume and stored below −70° C.; and the viral titer was detected with RT-qPCR.
First, sample homogenization and lung tissue RNA extraction were performed, and the supernatant was taken from the tissue sample that was homogenized using a tissue homogenizer (maintaining a low-temperature environment). The approximately 100 μL of the homogenate supernatant was taken, and total tissue RNA was extracted by using a VeZol reagent-chloroform-water phase-magnetic bead method, and dissolved in RNase-free water. The RT-qPCR reaction system was prepared as follows: a one-step RT-qPCR reaction system was prepared by using an RNA template, a probe, a primer pair, an RT-qPCR buffer, and the RNase-free water; each sample was tested in duplicated wells, with each well containing 20 μL of the one-step RT-qPCR reaction system; a quantitative standard curve well (RSV A2 N gene full-length plasmid), a positive quality control well, and a negative quality control well were arranged at the same time. Then, amplification programs were set according to reverse transcription, pre-denaturation, and cyclic amplification, and amplification data was collected by using a real-time fluorescence quantification PCR instrument, and a mean CT value for duplicated wells was calculated. The CT value from the test results for each sample was substituted into a quantitative standard curve to calculate a copy number. A calculation formula for RSV viral load (copy number/gram of lung tissue) was: sample viral load (copy number/gram of lung tissue)=copy number/relative tissue input (g).
One hour after RSV A2 challenge in cotton rats, compounds 13, 14, 17, 19, 20, 21, 26, 27, 28, and 40 were administered via tracheal nebulization once daily for 5 consecutive days; and 2 h after the final administration, lung tissue was collected from all groups for viral titer detection, and results were shown in Table 4.

hMPV A2 = format: cell-based; settings: Vero cells, plaque reduction
Experimental: (§1) African green monkey kidney cells (Vero) were sourced from the ATCC, with catalog number CCL-81. The cells were cultured in a DMEM culture solution in which 10% fetal bovine serum, 1% non-essential amino acids, 1% sodium pyruvate, 1% L-glutamine, 100 U/ml penicillin, and 100 μg/ml streptomycin were added.
(§2) A hMPV plaque experiment culture medium consisted of an Opti-MEM culture solution added with 1% non-essential amino acids, 100 U/mL penicillin, and 100 μg/mL streptomycin.
(§3) hMPV virus strains A2 and B1 were constructed by WuXi App Tec.
(§4) This study used a plaque reduction experiment to detect the in-vitro activity of a test sample against the hMPV virus strains A2 and B1.
(§5) The test sample and an experimental system were tested at 8 concentrations in duplicated wells. The Vero cells were digested with trypsin and then diluted to a concentration of 400,000 cells per milliliter by using a cell culture solution containing 2% serum. The diluted cells were added to a 96-well cell test board, with 100 μL per well, corresponding to 40000 cells per well. The cells were cultured overnight in a 37° C. incubator with 5% CO2.
(§6) On the second day, the test sample was diluted in an experimental culture medium at a fold ratio. The sample diluted at a fold ratio and an equal volume of virus (approximately 200 PFU per well) were well mixed and incubated at 33° C. in 5% CO2 for 1 h. Then, the culture solution in the 96-well cell test board was discarded, the sample virus mixed solution (100 μL) was added to the 96-well cell culture plate, and incubated at 37° C. in 5% CO2 for 2 hours. After 2 h, the sample virus mixed solution was discarded, 200 μL of an experiment culture medium containing the test sample with a corresponding concentration was added, and the culture solution contained 0.8% CMC and 5 μg/ml trypsin. A final concentration of DMSO in the culture solution was 0.5%. A system control antibody was directly added to the experiment culture solution containing 0.8% CMC and 5 μg/ml trypsin. A cell control (cells, without compound treatment or viral infection) and a viral control (cell infection virus, without compound treatment) were set. The cells were cultured for 1 day in the 33° C. incubator with 5% CO2.
(§7) The cells were fixed with 4% paraformaldehyde, and then permeabilization was performed with 0.5% Triton X-100. After the plate was washed with DPBS, a hMPV specific antibody (1:2000 dilution) was added and incubated at 37° C. for 1.5 h. Then, a secondary antibody (1:1000 dilution) was added and incubated at 37° C. for 1 hour. The secondary antibody was discarded, a TrueBlue solution was added, dyeing was performed for approximately 10 minutes; and the plate was washed with running water and then air-dried, and the number of spots in each well was counted by using a microplate imaging counter.
(§8) Raw data was used for analyzing the antiviral activity of the test samples. A calculation formula was shown as follows.
(§9) % inhibition rate=100−(sample value-cell control average value)/(virus control average value-cell control average value)×100
(§10) Non-linear fitting analysis was performed on the inhibition rate of the sample by using GraphPad Prism (version 10), so as to calculate an EC50 value for the sample. A fitting formula was log (inhibitor) vs. response-Variable slope (four parameters).

hMPV B1 = format: cell-based; settings: Vero cells, plaque reduction
Experimental: as §1, §2, §3, §4, §5, §6, §7, §8, §9, §10

Row | Molecule | Nucleic acid load RT-qPCR detection results Log10 mean (copy number/gram of lung tissue) (RSV A2 virus strain) | effect on viral titer in lung tissue (in words) (RSV A2 virus strain) | EC50 (hMPV A2) [nM] | EC50 (hMPV B1) [nM]
1 | CC[C@H](C)[C@H](NC(=O)[C@H](CCCCN)NC(=O)[C@H](CCCCN)NC(=O)[C@H](CC(C)C)NC(=O)[C@H](CO)NC(=O)[C@H](CCC(=O)O)NC(=O)[C@H](CCC(=O)O)NC(=O)[C@@H](NC(=O)[C@H](CCCCN)NC(=O)[C@H](CCCCN)NC(=O)[C@H](CC(N)=O)NC(=O)[C@@H](NC(=O)[C@H](CCC(=O)O)NC(=O)[C@H](CCC(=O)O)NC(=O)[C@@H](NC(=O)[C@H](CCCCN)NC(=O)[C@H](CCCCN)NC(=O)[C@H](CC(=O)O)NC(=O)[C@H](Cc1ccccc1)NC(=O)[C@H](CCC(=O)O)NC(=O)[C@H](CC(=O)O)NC(=O)[C@H](Cc1c[nH]c2ccccc12)NC(C)=O)[C@@H](C)CC)C(C)C)[C@@H](C)CC)C(=O)N[C@@H](CCC(=O)O)C(=O)N[C@@H](CCC(=O)O)C(=O)N[C@@H](CO)C(=O)N[C@@H](CC(=O)O)C(=O)N[C@@H](CCCCN)C(=O)N[C@@H](CCCCN)C(=O)N[C@@H](CC(C)C)C(=O)N[C@@H](CCC(=O)O)C(=O)N[C@@H](C)C(=O)N[C@@H](C)C(=O)N[C@@H](C)C(=O)N[C@@H](CCCCN)C(=O)N[C@@H](CCCCNC(=O)CCC(=O)O[C@H]1CC[C@@]2(C)C(=CC[C@H]3[C@@H]4CC[C@H]([C@H](C)CCCC(C)C)[C@@]4(C)CC[C@@H]32)C1)C(N)=O [Compound 13] (Ac-WDEFDKKIEEVNKKIEESLKKIEESDKKLEAAAKK(Succinyl(4-O-cholesteryl))-NH2) | 7.82 Log10 copy number/gram of lung | significantly reduce the viral titer in lung tissue | 11.7 | 6.18
2 | CC[C@H](C)[C@H](NC(=O)[C@H](CCCCN)NC(=O)[C@H](CCCCN)NC(=O)[C@H](CC(C)C)NC(=O)[C@H](CO)NC(=O)[C@H](CCC(=O)O)NC(=O)[C@H](CCC(=O)O)NC(=O)[C@@H](NC(=O)[C@H](CCCCN)NC(=O)[C@H](CCCCN)NC(=O)[C@H](CC(N)=O)NC(=O)[C@@H](NC(=O)[C@H](CCC(=O)O)NC(=O)[C@H](CCC(=O)O)NC(=O)[C@@H](NC(=O)[C@H](CCCCN)NC(=O)[C@H](CCCCN)NC(=O)[C@H](CC(=O)O)NC(=O)[C@H](Cc1ccccc1)NC(=O)[C@H](CCC(=O)O)NC(=O)[C@H](CC(=O)O)NC(=O)[C@H](CO)NC(C)=O)[C@@H](C)CC)C(C)C)[C@@H](C)CC)C(=O)N[C@@H](CCC(=O)O)C(=O)N[C@@H](CCC(=O)O)C(=O)N[C@@H](CO)C(=O)N[C@@H](CC(=O)O)C(=O)N[C@@H](CCCCN)C(=O)N[C@@H](CCCCN)C(=O)N[C@@H](CC(C)C)C(=O)NCC(=O)N[C@@H](CO)C(=O)NCC(=O)N[C@@H](CO)C(=O)NCC(=O)N[C@@H](CCCCNC(=O)CCC(=O)O[C@H]1CC[C@@]2(C)C(=CC[C@H]3[C@@H]4CC[C@H]([C@H](C)CCCC(C)C)[C@@]4(C)CC[C@@H]32)C1)C(N)=O [Compound 20] (Ac-SDEFDKKIEEVNKKIEESLKKIEESDKKLGSGSGK(Succinyl(4-O-cholesteryl))-NH2) | 8.55 Log10 copy number/gram of lung | significantly reduce the viral titer in lung tissue | 7.47 | 4.27
3 | CC[C@H](C)[C@H](NC(=O)[C@H](CO)NC(=O)[C@H](C)NC(=O)[C@H](CC(=O)O)NC(=O)[C@H](Cc1ccccc1)NC(=O)[C@H](CCC(=O)O)NC(=O)[C@H](CC(=O)O)NC(C)=O)C(=O)N[C@@H](CO)C(=O)N[C@@H](CCC(N)=O)C(=O)N[C@H](C(=O)N[C@@H](CC(N)=O)C(=O)N[C@@H](CCC(=O)O)C(=O)N[C@@H](CCCCN)C(=O)N[C@H](C(=O)N[C@@H](CC(N)=O)C(=O)N[C@@H](CCC(N)=O)C(=O)N[C@@H](CO)C(=O)N[C@@H](CC(C)C)C(=O)N[C@@H](CCC(=O)O)C(=O)N[C@@H](CCC(=O)O)C(=O)N[C@H](C(=O)N[C@@H](CCCNC(=N)N)C(=O)N[C@@H](CCCCN)C(=O)N[C@@H](CO)C(=O)N[C@@H](CC(=O)O)C(=O)N[C@@H](CCC(=O)O)C(=O)N[C@@H](CC(C)C)C(=O)N[C@@H](CC(C)C)C(=O)N[C@@H](Cc1c[nH]cn1)C(=O)N[C@@H](CC(N)=O)C(=O)N[C@@H](CCC(=O)O)C(=O)N[C@@H](C)C(=O)N[C@@H](C)C(=O)N[C@@H](C)C(=O)N[C@@H](CCCCN)C(=O)N[C@@H](CCCCNC(=O)CCC(=O)O[C@H]1CC[C@@]2(C)C(=CC[C@H]3[C@@H]4CC[C@H]([C@H](C)CCCC(C)C)[C@@]4(C)CC[C@@H]32)C1)C(N)=O)[C@@H](C)CC)[C@@H](C)CC)C(C)C [Compound 28] (Ac-DEFDASISQVNEKINQSLEEIRKSDELLHNEAAAKK(Succinyl(4-O-cholesteryl))-NH2) | 7.76 Log10 copy number/gram of lung | significantly reduce the viral titer in lung tissue | 58.6 | 13.8
4 | CC[C@H](C)[C@H](NC(=O)[C@H](CCCCN)NC(=O)[C@H](CCCCN)NC(=O)[C@H](CC(C)C)NC(=O)[C@H](CO)NC(=O)[C@H](CCC(N)=O)NC(=O)[C@H](CC(N)=O)NC(=O)[C@@H](NC(=O)[C@H](CCCCN)NC(=O)[C@H](CCCCN)NC(=O)[C@H](CC(=O)O)NC(=O)[C@H](Cc1ccccc1)NC(=O)[C@H](CCC(=O)O)NC(=O)[C@@H](NC(=O)[C@H](CCCCN)NC(=O)[C@H](CCCCN)NC(=O)[C@H](CC(N)=O)NC(=O)[C@@H](NC(=O)[C@H](CC(C)C)NC(=O)[C@H](CCC(=O)O)NC(=O)[C@H](CC(=O)O)NC(=O)[C@H](CO)NC(C)=O)C(C)C)[C@@H](C)CC)[C@@H](C)CC)C(=O)N[C@@H](CCC(=O)O)C(=O)N[C@@H](CCC(=O)O)C(=O)N[C@@H](CO)C(=O)N[C@@H](CC(=O)O)C(=O)N[C@@H](CCCCN)C(=O)N[C@@H](CCCCN)C(=O)N[C@@H](CCCCN)C(=O)N[C@@H](CC(C)C)C(=O)N[C@@H](CCC(=O)O)C(=O)N[C@@H](C)C(=O)N[C@@H](C)C(=O)N[C@@H](C)C(=O)N[C@@H](CCCCN)C(=O)N[C@@H](CCCCN)C(N)=O [Compound 51] (Ac-SDELVNKKIEFDKKINQSLKKIEESDKKKLEAAAKK-NH2) | – | – | 18.8 | 3.82
5 | Ac-LVKKIDEFDASISQVNEKINQSLEEIRKSDELLHNVGSGSGK(Succinyl(4-O-cholesteryl))-NH2 [Compound 29] | – | – | 41.6 | 11.1
6 | Ac-SLEQVNEKINQSLAFIRKSDEINQSDEEVNKSDELLEAAAKK-NH2 [Compound 50] | – | – | 13.3 | 5.95
7 | Ac-WDEFDASISQVNEKINQSLEEIRKSDELLHNVNALEAAAKK(Succinyl(4-O-cholesteryl))-NH2 [Compound 38] | – | – | 128 | 16.6
